Source: patent US20080004302A1, “Novel Compounds” (ASTRAZENECA AB, priority 2006, published 2008)
Structures can show the parent of a compound that is named as a salt.

Key:
Erk phosphorylation = test: Growth factor (bFGF) stimulated Erk phosphorylation in NIH 3T3 cells; settings: Mus musculus, NIH3T3, NIH 3T3 cells, 3 ng/ml bFGF; upper bound of bin
Description: These and other assays were used to evaluate the ability of a test compound to inhibit growth factor stimulated cellular signalling in mammalian cell lines. This was achieved by measuring the amount of receptor tyrosine kinase regulated Erk phosphorylation within a cell following compound treatment.
NIH 3T3 (ECACC, 93061524) cells were routinely passaged in DMEM (Gibco BRL, 41966) plus 10% foetal calf serum (FCS), 1% L-glutamine (Gibco BRL, 25030) to a confluence not greater than 80%. To undertake the assay, NIH 3T3's were seeded at 1×10^4 cells/well in DMEM plus 10% foetal calf serum, 1% L-glutamine in 96 well plates (Costar, 3904) and incubated at 37° C. (+5% CO2) in a humidified incubator. Once the cells had fully adhered (typically following 4-5 hours incubation) the media was removed from each well and the cells gently washed with 100μl warm serum free media. 90μl of serum free DMEM plus 1% L-glutamine was then added to each well and the plates were returned to a humidified 37° C. (+5% CO2) incubator. The following day, the plates were dosed with 10[l compound (diluted from 10 mM stock in DMSO using serum free DMEM) and the plates were returned to a humidified 37° C. (+5% CO2) incubator for one hour. NIH 3T3 cells were then stimulated with a final concentration of 3 ng/ml bFGF (Sigma, F029 1) for 20 minutes at 37° C. Following stimulation the cells were fixed by adding formaldehyde (4% v/v final concentration) and incubating at room temperature for 20 minutes. The fixative solution was then removed and the wells were washed twice with 100μl phosphate buffered saline (PBS/A) before permeabilising the cells by the addition of 50 μl/well 0.1% triton/PBS/A for 10 minutes at room temperature. The permeabilisation solution was then removed and the cells washed twice more with 100 μl/well PBS/A before the addition of 50 μl/well anti-phospho p44/42 (Cell Signalling Technology, 9106), diluted 1/500 with PBS/A plus 10% FCS. The anti-phospho p44/42 antibody recognises Erk phosphorylated at threonine 202 and tyrosine 204. […] Finally, the plates were washed three times with 100 μl/well PBS/A, leaving the final wash in the wells before sealing the plates. The plates were read at 350 nm and 488 nm using an Arrayscan (Cellomics).

FGFR1 kinase = FGFR1 kinase (Homo sapiens, UniProt P11362); test: Kinase assay (using Caliper technology); assay type: biochemical; settings: FGFR1 kinase, Caliper; upper bound of bin; read-out: IC50
Method: To determine inhibition of FGFR activity, kinase assays were conducted using Caliper technology.
Kinase activity assays were performed in Greiner 384-well low volume plates, with a total reaction volume of 12ul per well. […] The substrate for each assay was a custom peptide with fluorescent tag (13 amino acids in length) the sequence of which was specific for FGFR1 kinase.
Compounds were serially diluted in 5% (v/v) DMSO, before being added to assay plates.
Assay plates were incubated at room temperature for 1.5 h, before the reaction was stopped with the addition of buffer [comprising: 100 mM HEPES—pH7.5, 0.033% Brij-35, 0.22% Caliper Coating Reagent #3, 88mM EDTA, 5% DMSO]. Stopped assay plates were then read using the Caliper LabChip® LC3000 (which uses microfludics to measure a shift in mobility between fluorescent labelled peptide and the FGFR1 kinase—phosphorylated form of this peptide).

human IGF1R = target: T1, human IGF1R (Homo sapiens, UniProt P08069); test: Inhibition of insulin-like growth factor-1 receptor phosphorylation in R+ cells; assay type: cell-based; settings: 30 nM IGF1, read-out: IGF cell class
T1 construct: expressed in transfected cells; host or cells: R+ cells (R- mouse fibroblasts transfected with human IGF1R)
Method: This immunofluorescence end point cell assay measures the ability of a test compound to reduce the measured levels of IGF1R phosphorylation after IGF1 stimulation in R^+ cells. […] were derived by transfection of R^− mouse fibroblast cells with human IGF1R.
(+5% CO2) incubator for 30 minutes.
Following the compound treatment, the R^+ cells were stimulated with a final concentration of 30 nM IGF1 (Gropep 1M001) for 20 minutes at 37° C. […] Plates were incubated for 1 hour at room temperature. […] Additionally, in-house antibodies raised against phospho […] were also used at a suitable titre determined for each batch.
The plates were incubated at room temperature for one hour. […] After addition of 100 μl/well PBS the plates were sealed with a black seal.
The Green Fluorescent phospho IGF1R -associated signal in each well was measured using an Acumen Explorer HTS Reader (TTP Labtech Ltd., Cambridge). […] The instrument is a laser-scanning fluorescence microplate cytometer, which samples the well at regular intervals and uses threshold algorithms to identify all fluorescent intensities above the solution background without the need to generate and analyse an image. These fluorescent objects can be quantified and provide a measure of the phospho IGF1R levels in cells. Fluorescence dose response data obtained with each compound was exported into a suitable software package (such as Origin) to perform curve fitting analysis. Phospho-IGF1R levels in response to compound treatment versus stimulated and unstimulated controls were expressed as an IC50 value.

FGFR1 IIIc = target: T2, FGFR1 IIIc (Homo sapiens, UniProt P11362); test: Cell based inhibition of transiently expressed FGFR1 IIIc phosphorylation via use of ECHO technology (Cos-1 cells); settings: Cos-1 cells, phospho-FGFR1, ECHO dosing; upper bound of bin; read-out: IC50
T2 construct: host or cells: Cos-1
Method: This assay is designed to detect inhibitors of transiently expressed FGFR1 phosphorylation by antibody staining of fixed cells detected using ArrayScan technology.
To undertake the assay, Cos-1 cells were harvested at 90-95% confluence for cell transfection. For each 96-well plate, 24μl Lipofectamine 2000 was added to 809 ul OptiMEM and incubated at room temperature for 5 minutes. […] Equal volumes of DNA and Lipofectamine 2000 were combined (DNA: Lipid=1:1.2 ratio) and incubated at room temperature for 20 minutes.
The harvested Cos-1 cells are counted using a coulter counter and diluted further with 1% FCS/DMEM to 2.5×10^5 cells/ml. For each 96-well, 8.33 ml cells were required. […] 70 μl of media was aspirated from the assay plate using the Quadra before the plate was transferred onto the ECHO 550. […] Compound transfer to the assay plate on the ECHO 550 was at concentration ranges 1)10 μM, 2) 3 μM, 3) 1 μM, 4) 0.3 μM, 5) 0.1 μM, 6) […].
The plates were gently tapped to mix compound in with the cell media and left to incubate at 37° C. with 5% CO2 for 1 hour.
Media was removed from the wells using vacuum aspiration; cells were fixed by adding 50 μl of 100% methanol to each well and incubated at room temperature for 20 minutes.
The plates were read on an Arrayscan (Cellomics).

T1 sequence (P08069 31-1367): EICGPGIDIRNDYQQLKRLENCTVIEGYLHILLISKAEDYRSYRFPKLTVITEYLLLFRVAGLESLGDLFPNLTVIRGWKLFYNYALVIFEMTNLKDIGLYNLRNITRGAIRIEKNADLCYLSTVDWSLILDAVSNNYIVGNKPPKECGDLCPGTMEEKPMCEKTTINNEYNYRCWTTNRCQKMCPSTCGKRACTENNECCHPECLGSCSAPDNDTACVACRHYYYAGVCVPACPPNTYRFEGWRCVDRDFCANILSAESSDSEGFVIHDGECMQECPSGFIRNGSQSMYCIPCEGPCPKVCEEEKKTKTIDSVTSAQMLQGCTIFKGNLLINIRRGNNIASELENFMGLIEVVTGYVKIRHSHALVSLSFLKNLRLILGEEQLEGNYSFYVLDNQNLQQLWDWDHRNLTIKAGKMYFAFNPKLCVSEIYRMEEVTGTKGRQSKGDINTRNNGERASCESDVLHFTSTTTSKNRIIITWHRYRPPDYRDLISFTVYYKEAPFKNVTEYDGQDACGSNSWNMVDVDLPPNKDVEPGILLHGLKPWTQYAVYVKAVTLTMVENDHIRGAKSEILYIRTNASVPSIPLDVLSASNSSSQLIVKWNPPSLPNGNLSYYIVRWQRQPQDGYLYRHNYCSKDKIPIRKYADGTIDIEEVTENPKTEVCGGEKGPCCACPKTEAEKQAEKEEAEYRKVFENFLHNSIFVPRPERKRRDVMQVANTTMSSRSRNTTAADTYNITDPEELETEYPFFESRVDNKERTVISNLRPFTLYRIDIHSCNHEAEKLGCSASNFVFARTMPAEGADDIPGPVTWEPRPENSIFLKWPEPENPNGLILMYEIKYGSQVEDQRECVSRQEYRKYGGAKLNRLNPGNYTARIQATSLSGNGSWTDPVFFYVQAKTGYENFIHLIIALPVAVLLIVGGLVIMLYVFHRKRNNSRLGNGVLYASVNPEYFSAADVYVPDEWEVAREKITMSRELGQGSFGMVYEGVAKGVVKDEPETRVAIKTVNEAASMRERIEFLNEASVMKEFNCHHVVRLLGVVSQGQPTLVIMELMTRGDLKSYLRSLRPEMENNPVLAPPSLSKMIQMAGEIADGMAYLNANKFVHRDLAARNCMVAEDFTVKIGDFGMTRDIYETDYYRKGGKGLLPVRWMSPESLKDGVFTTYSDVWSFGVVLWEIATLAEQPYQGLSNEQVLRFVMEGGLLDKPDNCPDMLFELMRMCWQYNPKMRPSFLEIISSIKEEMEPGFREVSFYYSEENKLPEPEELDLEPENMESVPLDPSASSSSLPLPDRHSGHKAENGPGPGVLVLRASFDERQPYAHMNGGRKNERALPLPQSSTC
FGFR1 kinase, sequence (P11362 22-822): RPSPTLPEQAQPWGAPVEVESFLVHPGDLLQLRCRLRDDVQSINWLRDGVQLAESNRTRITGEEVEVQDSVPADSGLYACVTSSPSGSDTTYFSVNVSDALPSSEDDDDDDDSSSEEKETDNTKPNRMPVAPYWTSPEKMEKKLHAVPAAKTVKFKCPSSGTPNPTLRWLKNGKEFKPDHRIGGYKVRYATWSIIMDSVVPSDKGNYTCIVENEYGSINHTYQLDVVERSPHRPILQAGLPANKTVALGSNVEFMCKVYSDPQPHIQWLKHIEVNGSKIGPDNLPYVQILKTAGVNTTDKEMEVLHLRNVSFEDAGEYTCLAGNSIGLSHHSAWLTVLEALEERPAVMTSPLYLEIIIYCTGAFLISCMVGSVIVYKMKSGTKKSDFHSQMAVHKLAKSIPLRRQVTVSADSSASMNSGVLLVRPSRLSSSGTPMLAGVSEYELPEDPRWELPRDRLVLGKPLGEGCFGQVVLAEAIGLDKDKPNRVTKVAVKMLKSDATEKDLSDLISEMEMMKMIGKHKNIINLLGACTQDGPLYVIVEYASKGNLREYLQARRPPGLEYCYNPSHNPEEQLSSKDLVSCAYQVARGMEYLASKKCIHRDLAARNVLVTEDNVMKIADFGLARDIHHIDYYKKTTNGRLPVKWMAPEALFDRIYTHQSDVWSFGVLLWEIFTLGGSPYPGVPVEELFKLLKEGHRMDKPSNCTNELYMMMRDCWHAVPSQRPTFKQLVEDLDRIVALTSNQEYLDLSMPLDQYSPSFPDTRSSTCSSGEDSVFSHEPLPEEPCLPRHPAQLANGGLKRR
T2 sequence (P11362 22-822): as above

SMILES	IC50 (FGFR1 kinase) [µM]	IC50 (human IGF1R) [µM]	IC50 (FGFR1 IIIc) [µM]	IC50 (Erk phosphorylation) [µM]
CCOc1cc(Nc2ccnc(NCc3cc(C)no3)n2)n[nH]1 [Example 86, N′-(5-ethoxy-1H-pyrazol-3-yl)-N-[(3-methyl1,2-oxazol-5-yl)methyl]pyrimidine-2,4-diamine]	< 0.2			< 1
CC(C)Oc1cc(Nc2ccnc(NCc3cc(C4CCOC4)no3)n2)[nH]n1 (centres unmarked) [Example 83, N-[[3-(oxolan-3-yl)1,2-oxazol-5-yl]methyl]-N′-(5-propan-2-yloxy-2H-pyrazol-3-yl)pyrimidine-2,4-diamine]	< 1			< 10
CC(C)Oc1cc(Nc2ccnc(NCc3cc(C(=O)N(C)C)no3)n2)[nH]n1 [Example 80, N,N-dimethyl-5-[[[4-[(5-propan-2-yloxy-2H-pyrazol-3-yl)amino]pyrimidin-2-yl]amino]methyl]1,2-oxazole-3-carboxamide]	< 1			< 10
Cc1cc(CNc2nccc(Nc3cc(OCc4ccc(C(F)(F)F)cc4)[nH]n3)n2)on1 [Example 96, N-[(3-methyl1,2-oxazol-5-yl)methyl]-N′-[5-[[4-(trifluoromethyl)phenyl]methoxy]-1H-pyrazol-3-yl]pyrimidine-2,4-diamine hydrochloride]	< 10	> 10		< 10
CCOC(=O)c1cc(CNc2nccc(Nc3cc(OC(C)C)n[nH]3)n2)on1 [Example 77, Ethyl 5-[[[4-[(5-propan-2-yloxy-2H-pyrazol-3-yl)amino]pyrimidin-2-yl]amino]methyl]1,2-oxazole-3-carboxylate]				< 1
NC(=O)c1cc(CNc2nccc(Nc3cc(CCc4ccccc4)n[nH]3)n2)on1 [Example 50, 5-[[[4-[(5-phenethyl-2H-pyrazol-3-yl)amino]pyrimidin-2-yl]amino]methyl]-1,2-oxazole-3-carboxamide]	< 1	> 10	< 10	
CC(C)Oc1cc(Nc2ccnc(NCc3cc(-c4cncnc4)no3)n2)n[nH]1 [Example 81, N′-(5-propan-2-yloxy-2H-pyrazol-3-yl)-N-[(3-pyrimidin-5-yl1,2-oxazol-5-yl)methyl]pyrimidine-2,4-diamine]	< 10			< 10
NC(=O)c1cc(CNc2nccc(Nc3cc(CCc4cccc(OCC5CC5)c4)[nH]n3)n2)on1 [Example 123, 5-[[[4-[[5-[2-[3-(cyclopropylmethoxy)phenyl]ethyl]-1H-pyrazol-3-yl]amino]pyrimidin-2-yl]amino]methyl]-1,2-oxazole-3-carboxamide]	< 1		< 10	
COc1ccc(CCc2cc(Nc3ccnc(NCc4cc(-c5ncccn5)no4)n3)n[nH]2)cc1 [Example 32, N′-[5-[2-(4-methoxyphenyl)ethyl]-2H-pyrazol-3-yl]-N-[(3-pyrimidin-2-yl-1,2-oxazol-5-yl)methyl]pyrimidine-2,4-diamine]	< 1	1 to 10	< 1	

Now from value to compound, other results behind:

IC50 (FGFR1 kinase) [µM]	IC50 (human IGF1R) [µM]	IC50 (FGFR1 IIIc) [µM]	SMILES	IC50 (Erk phosphorylation) [µM]
< 30	1 to 10		Cc1cc(CNc2nccc(Nc3cc(CCc4ccc(OCc5ccccc5)cc4)[nH]n3)n2)on1 [Example 37, N-[(3-methyl1,2-oxazol-5-yl)methyl]-N′-[5-[2-(4-phenylmethoxyphenyl)ethyl]-2H-pyrazol-3-yl]pyrimidine-2,4-diamine]	< 10
< 1	1 to 10		Cc1cc(CNc2nccc(Nc3cc(OCc4cccc(NC(=O)OC(C)(C)C)c4)[nH]n3)n2)on1 [Example 89, tert-Butyl N-[3-[[5-[[2-[(3-methyl1,2-oxazol-5-yl)methylamino]pyrimidin-4-yl]amino]-1H-pyrazol-3-yl]oxymethyl]phenyl]carbamate]	< 1
< 10	> 10	< 30	NC(=O)c1cc(CNc2nccc(Nc3cc(COc4ccccc4)n[nH]3)n2)on1 [Example 36, 5-[[[4-[[5-(phenoxymethyl)-2H-pyrazol-3-yl]amino]pyrimidin-2-yl]amino]methyl]1,2-oxazole-3-carboxamide]	
< 10			CC(C)Oc1cc(Nc2ccnc(NCc3cc(C4CCOCC4)no3)n2)[nH]n1 [Example 85, N-[[3-(oxan-4-yl)1,2-oxazol-5-yl]methyl]-N′-(5-propan-2-yloxy-2H-pyrazol-3-yl)pyrimidine-2,4-diamine]	< 10
< 1	1 to 10		Cc1cc(CNc2nccc(Nc3cc(CCc4nc(-c5ccccc5)no4)[nH]n3)n2)on1 [Example 106, N-[(3-methyl1,2-oxazol-5-yl)methyl]-N′-[5-[2-(3-phenyl-1,2,4-oxadiazol-5-yl)ethyl]-2H-pyrazol-3-yl]pyrimidine-2,4-diamine]	< 1
< 1	> 10	< 1	Cc1cc(CNc2nccc(Nc3cc(OCCOc4ccccc4)[nH]n3)n2)on1 [Example 101, N-[(3-methyl1,2-oxazol-5-yl)methyl]-N′-[5-(2-phenoxyethoxy)-2H-pyrazol-3-yl]pyrimidine-2,4-diamine]	
< 1	1 to 10		Cc1cc(CNc2nccc(Nc3cc(-c4cccs4)[nH]n3)n2)on1 [Example 104, N-[(3-methyl1,2-oxazol-5-yl)methyl]-N′-(5-thiophen-2-yl-1H-pyrazol-3-yl)pyrimidine-2,4-diamine]	< 1
< 1			COCCCc1cc(Nc2ccnc(NCc3cc(C4CCC4)no3)n2)n[nH]1 [Example 23, N-[(3-Cyclobutyl1,2-oxazol-5-yl)methyl]-N′-[5-(3-methoxypropyl)-1H-pyrazol-3-yl]pyrimidine-2,4-diamine]	< 1
< 10	> 10		CCc1cccc(COc2cc(Nc3ccnc(NCc4cc(C)no4)n3)n[nH]2)c1 [Example 74, N′-[5-[(3-ethylphenyl)methoxy]-2H-pyrazol-3-yl]-N-[(3-methyl1,2-oxazol-5-yl)methyl]pyrimidine-2,4-diamine]	< 1
< 0.2			NC(=O)c1cc(CNc2nccc(Nc3cc(CCc4ccco4)n[nH]3)n2)on1 [Example 112, 5-[[[4-[[5-[2-(2-furyl)ethyl]-2H-pyrazol-3-yl]amino]pyrimidin-2-yl]amino]methyl]1,2-oxazole-3-carboxamide]	< 10
< 10			Cc1cc(CNc2nccc(Nc3cc(OCc4cccc(C(=O)O)c4)[nH]n3)n2)on1 [Example 98, 3-[[5-[[2-[(3-methyl1,2-oxazol-5-yl)methylamino]pyrimidin-4-yl]amino]-1H-pyrazol-3-yl]oxymethyl]benzoic acid]	< 10
	> 10		COCC(C)Oc1cc(Nc2ccnc(NCc3cc(C4CC4)no3)n2)n[nH]1 (centres unmarked) [Example 76, N-[(3-cyclopropyl-1,2-oxazol-5-yl)methyl]-N′-[5-(1-methoxypropan-2-yloxy)-1H-pyrazol-3-yl]pyrimidine-2,4-diamine]	< 1
< 30		< 10	CNC(=O)c1cc(C)cc(CCc2cc(Nc3ccnc(NCc4cc(C)no4)n3)n[nH]2)c1 [Example 142, N,3-dimethyl-5-[2-[5-[[2-[(3-methyl-1,2-oxazol-5-yl)methylamino]pyrimidin-4-yl]amino]-1H-pyrazol-3-yl]ethyl]benzamide]	
